The results in this text go back to patent EP4467141A1, “PYRAZOLO-QUINOLINES AS SELECTIVE INHIBITORS OF GENOTOXIC STRESS-INDUCED IKK/NF- KB PATHWAYS FOR CANCER THERAPY” (Max-Delbrück-Centrum für Molekulare Medizin in der …, priority 2023, dated 2024).

Assay [1] has as its system NF-κB subunit p65 phosphorylation (S536). The assay is described as follows: Western blot of p65 phosphorylation (S536) after DNA damage (irradiation or etoposide) in U2-OS cells. The class given is cell-based. Conditions: for phosphorylation of p65 at serine 536 after DNA damage: 1-hour pre-treatment, irradiation (IR, 20 Gy), 90 min; for activity in cell-based NF-κB activation assays: 10 µM, p65 phosphorylation and NFKBIA expression after irradiation. The procedure: Fig.1: Identification of inhibitors specific for DNA damage-induced NF-κB activity. (A) Flowchart representing the high-throughput chemical library screening. A screen/counter-screen strategy was used by stimulating NF-κB in U2-OS cells with etoposide (50 µM for 90 min) and hits were counter-screened with TNFα (10 ng/ml for 20 min). Cells were pre-treated with compounds (10 µM) for 1 hour before stimulation, fixed, and percent p65 nuclear translocation measured by fluorescence microscopy. IC50 values were used for final selection. (B) Comparison of mean p65 nuclear translocation following either etoposide or TNFa stimulation after treatment with each counter-screened hit compound. Values were normalized to etoposide or TNFα positive controls. Specific inhibitors (red) of DNA damage-induced NF-κB signaling were defined by setting cut-off criteria (black line). […] (C) IC50 determination for MW01 (left) and MW05 (right) of p65 nuclear translocation, following either etoposide or TNFα treatment. […] IC50 noted with a dotted line. (D) Structures of compounds selected as leads for further analysis, MW01 (5-Hydroxy-10,11-dimethoxy-9H-benzo[c]indolo[3,2,1-ij][1,5]naphthyridin-9-one) and MW05 (3-Amino-7-methoxypyrazolo[3,4-b]quinolin-1-yl)-[3-(dimethylamino)phenyl]methanone). (E) Western blot analysis (top) and quantification (bottom) of NF-κB subunit p65 phosphorylation (S536) following 1-hour pre-treatment with DMSO, MW01 (10 µM), or MW05 (10 µM), in unstimulated, after 90 min irradiation (IR, 20 Gy), or after 20 min TNFα (10 ng/mL) conditions in U2- OS cells. B-actin was used as loading control after. The p-p65 signal was first normalized to β-actin loading control per sample, then each value to DMSO-treated unstimulated to evaluate relative activation of NF-κB. Ns: not significant; ***: p<0.001.
NF-κB was stimulated by DNA damage through either 20 Gy irradiation (IR) and analyzed after 90 minutes or by 10 ng/ml TNFα and analyzed after 20 minutes unless otherwise noted.
All compounds were pre-treated for 1-hour prior to NF-κB stimulation unless otherwise noted.
Cells were collected by scraping and lysed in Baeuerle lysis buffer supplemented with Protease (Thermo Fisher Scientific, 78429) and Phosphatase (Thermo Fisher Scientific, 78420) inhibitors after the appropriate treatment and time point. Proteins were quantified by Bradford assay (Bio-Rad, 5000006) and 20-50 µg of extracted proteins were loaded on 4-20% Protein Gel (Bio-Rad, 4568096) and then transferred onto a PVDF membrane (Bio-Rad, 1620177) using Tris-Glycine buffer with 20% of methanol. Blocking was performed for 1h with 5% not-fat dry milk in PBS 1X. Immunodetection was obtained using primary and secondary antibodies reported in Key Resources Table. The membranes were analyzed by ECL (Thermo Fisher Scientific, 34580) and detected by ChemiDoc XRS+ (Bio-Rad) using ImageLab software (Bio-Rad).

The next assay addresses T1, CLK3 (Homo sapiens, UniProt P49761).
T1 construct: purchased Thermo Fisher Scientific
Nature of the assay: Kinase panel study. The following applies: for CLK3 inhibition: in vitro kinase assay, isoform specificity; for inhibition at 10 µM: CLK3, compound at 10µM. The assay is classed as biochemical. The procedure: The Kinase panel study was entirely provided by Thermo Fisher Scientific using the two lead compounds MW01 and MW05 as well as their derivatives (MW01-E06, MW01-E10, MW01-E14, MW01-E18, MW05-E2, MW05-E3, MW05-E9 and MW05-E10. The experiment was performed using the ZLyte or Adapta protocol according to manufacturer standard operating procedures. […]

The target of another assay is T2, CLK1 (Homo sapiens, UniProt P49759).
T2 construct: purchased Thermo Fisher Scientific
T2 sequence (P49759 whole entry): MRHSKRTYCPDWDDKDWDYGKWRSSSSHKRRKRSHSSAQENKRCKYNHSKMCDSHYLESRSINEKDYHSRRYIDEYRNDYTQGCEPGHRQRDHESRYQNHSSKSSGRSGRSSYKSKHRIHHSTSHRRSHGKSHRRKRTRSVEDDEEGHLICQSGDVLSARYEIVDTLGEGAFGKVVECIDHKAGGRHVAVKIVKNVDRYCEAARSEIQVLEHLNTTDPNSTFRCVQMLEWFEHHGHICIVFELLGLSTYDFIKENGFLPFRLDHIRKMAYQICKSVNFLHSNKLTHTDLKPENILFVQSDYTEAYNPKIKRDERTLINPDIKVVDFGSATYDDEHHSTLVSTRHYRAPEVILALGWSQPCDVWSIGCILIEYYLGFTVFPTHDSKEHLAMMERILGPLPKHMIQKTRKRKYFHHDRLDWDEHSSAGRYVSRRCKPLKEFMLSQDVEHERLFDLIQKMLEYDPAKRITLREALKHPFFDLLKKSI
Nature of the assay: Kinase panel study. The class given is biochemical. As for the experimental part:
(§1) The Kinase panel study was entirely provided by Thermo Fisher Scientific using the two lead compounds MW01 and MW05 as well as their derivatives (MW01-E06, MW01-E10, MW01-E14, MW01-E18, MW05-E2, MW05-E3, MW05-E9 and MW05-E10. The experiment was performed using the ZLyte or Adapta protocol according to manufacturer standard operating procedures.
(§2) Based on their similar effects in our screen and molecular analysis, MW01 and MW05 were used in comparative target deconvolution studies seeking common targets despite their distinct structures. To eliminate previously identified kinases regulating NF-κB activity, such as IKK, as possible targets of MW01 and MW05, an in vitro kinase inhibition assay was performed. […] We next investigated if any of the shared kinase targets of MW01 and MW05 play a role in genotoxic stress-induced NF-κB activity and established several criteria to narrow down pathway-relevant targets. Considering the similar NF-κB inhibition phenotypes of both compounds, we hypothesized first that the target should be shared by both lead compounds. Second, based on the CaCo2 recovery values and experimental treatment concentration of 10 µM), the putative target kinase should have a low IC50 of, at most, 2000 nM for both lead compounds in the in vitro kinase panel (Fig. 2A). Based on these criteria alone, we arrived at a relatively short list of potential targets for further analysis, leaving only PIK3CG, PIK3C2G, and CLK2 (Fig. 2B). IC50 values for PIK3C2G by both lead compounds agreed best with these criteria, but RNA expression analysis indicates high tissue specificity as well as lack of expression of this kinase in our U2-OS model cell line, which we then eliminated from further analysis (Uhlén et al., 2015). […] Table 6: Percentage of inhibition of the indicated kinases by MW01 or MW05 at either 10 µM or 1 µM. n.d. = not determined. […]

In a further assay the target is T3, CLK2 (Homo sapiens, UniProt P49760).
T3 construct: purchased Thermo Fisher Scientific
T3 sequence (P49760 whole entry): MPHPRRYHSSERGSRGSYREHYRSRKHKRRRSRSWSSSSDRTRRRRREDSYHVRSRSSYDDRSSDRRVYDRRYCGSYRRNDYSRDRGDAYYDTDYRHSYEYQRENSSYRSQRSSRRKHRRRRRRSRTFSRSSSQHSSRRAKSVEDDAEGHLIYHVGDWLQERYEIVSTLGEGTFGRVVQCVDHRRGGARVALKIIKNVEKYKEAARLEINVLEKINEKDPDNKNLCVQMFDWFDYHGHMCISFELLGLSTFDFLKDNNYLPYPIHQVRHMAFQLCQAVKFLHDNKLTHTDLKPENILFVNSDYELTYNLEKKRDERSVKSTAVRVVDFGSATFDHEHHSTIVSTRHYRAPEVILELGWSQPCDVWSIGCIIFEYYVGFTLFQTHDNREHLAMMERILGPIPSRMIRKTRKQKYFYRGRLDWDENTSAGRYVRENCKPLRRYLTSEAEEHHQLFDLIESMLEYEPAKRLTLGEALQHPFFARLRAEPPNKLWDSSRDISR
Nature of the assay: Kinase panel study. Conditions: for inhibition at 1 µM: 1000nM; for IC50: in vitro kinase panel. The assay is classed as biochemical. The procedure: as §1, §2
(§3) To validate the structural backbones of MW01 and MW05 and leverage additional structures in discerning on- and off-target activity, we screened more than 30 structural derivatives for similar NF-κB pathway inhibition compared to our lead compounds following irradiation or TNF stimulation (Table 1 and 2). Several structural derivatives of each lead compound were identified which reduced p-p65 and NFKBIA expression in an irradiation-specific manner. (Fig 3A, B, C, Fig. 8). […] As expected for structurally similar derivatives, kinase inhibition profiles of active derivatives were similar to the respective lead compounds, validating the common structural backbones of each as kinase inhibitors. However, inhibition of several kinases was lost some derivatives of MW01 and MW05, including PI3K isoforms, adding further evidence that the NF-κB inhibition by our compounds is not mediated by inhibition of these kinases. […] Considering the phenotypic similarity between two structurally distinct lead compounds, the agreement of the derivatives with our kinase IC50 criteria, and significant results following siRNA knockdown of CLK2 and CLK4, we proceeded to further characterize our lead compounds.

A further assay has as its target T4, CLK4 (Homo sapiens, UniProt Q9HAZ1).
T4 construct: purchased Thermo Fisher Scientific
The assay is described as follows: Kinase panel study. The assay is classed as biochemical. The procedure: as §1, §2, §3

The mark [2] stands for this setting: 10000nM, read-out: Percentage of inhibition.
[3] abbreviates: first CLK2 line of the table, read-out: Percentage of inhibition.
Setting [4] is: second CLK2 line of the table, read-out: Percentage of inhibition.
Setting [5] is: 10000nM, first CLK2 line of the table, read-out: Percentage of inhibition.
Setting [6] is: 10000nM, second CLK2 line of the table, read-out: Percentage of inhibition.
Setting [7] is: CLK1, compound at 10µM, read-out: % of Inhibition.
Where [8] appears, read: CLK2, compound at 10µM, read-out: % of Inhibition.
Where [9] appears, read: CLK4, compound at 10µM, read-out: % of Inhibition.

As a reminder, the inhibition is the drop in the measured response relative to a control, in per cent. Usually IC50 stands for the point on the concentration scale where inhibition reaches its midpoint. A low value points to inhibition by little substance.

Each structure is given as a SMILES string. Entries after “also recorded” stand apart in the source; their conditions may differ. Read-outs that look alike come from different tables or passages of the source.

T4 sequence (Q9HAZ1 whole entry): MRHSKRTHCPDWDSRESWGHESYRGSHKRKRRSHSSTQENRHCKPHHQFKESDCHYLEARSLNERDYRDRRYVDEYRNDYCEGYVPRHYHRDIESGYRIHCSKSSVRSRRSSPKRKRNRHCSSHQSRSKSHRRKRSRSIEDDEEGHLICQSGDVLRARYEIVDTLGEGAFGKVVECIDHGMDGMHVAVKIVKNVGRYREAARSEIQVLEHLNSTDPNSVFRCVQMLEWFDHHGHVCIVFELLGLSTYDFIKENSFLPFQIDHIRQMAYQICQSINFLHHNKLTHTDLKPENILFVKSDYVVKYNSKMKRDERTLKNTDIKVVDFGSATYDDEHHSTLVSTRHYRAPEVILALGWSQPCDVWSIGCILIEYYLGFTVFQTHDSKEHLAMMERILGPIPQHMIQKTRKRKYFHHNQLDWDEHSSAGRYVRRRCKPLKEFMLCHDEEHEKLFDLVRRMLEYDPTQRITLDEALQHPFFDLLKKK
T1 sequence (P49761 whole entry): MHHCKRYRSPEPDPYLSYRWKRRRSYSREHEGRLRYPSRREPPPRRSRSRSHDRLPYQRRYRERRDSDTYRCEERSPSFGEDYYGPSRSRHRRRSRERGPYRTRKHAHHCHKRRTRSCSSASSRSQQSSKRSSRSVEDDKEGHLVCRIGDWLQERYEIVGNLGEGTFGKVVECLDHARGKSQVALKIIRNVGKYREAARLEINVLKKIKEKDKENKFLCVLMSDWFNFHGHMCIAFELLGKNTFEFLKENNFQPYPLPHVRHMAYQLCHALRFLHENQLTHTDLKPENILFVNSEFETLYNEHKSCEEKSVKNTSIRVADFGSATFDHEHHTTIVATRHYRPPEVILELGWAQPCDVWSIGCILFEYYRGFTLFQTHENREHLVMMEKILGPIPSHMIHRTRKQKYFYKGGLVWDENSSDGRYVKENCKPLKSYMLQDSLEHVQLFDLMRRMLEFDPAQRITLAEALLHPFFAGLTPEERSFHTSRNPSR

Turning to `COc1ccc2c(c1OC)c(=O)n1c3ccc(O)cc3c3ccnc2c31` [MW01, 5-Hydroxy-10,11-dimethoxy-9H-benzo[c]indolo[3,2,1-ij][1,5]naphthyridin-9-one], the “phosphorylation of p65 at serine 536 after DNA damage” value in assay [1] is recorded as “significantly reduced”. For the same compound, the CLK3 inhibition result at CLK3 is “largely spare CLK3”. Besides, the inhibition at 10 µM on CLK1 (setting [2]) turned out to be 88%; on CLK2 (setting [5]) it was 91%; at CLK2 (setting [6]), 91%; on CLK4 (setting [2]), 91%. Also, the inhibition at 1 µM at CLK2 (setting [3]) and at CLK2 (setting [4]) was 78% each time. On CLK2, this compound showed an IC50 of 360 nM.

For `COc1ccc2c(c1)c1ccnc3c4nc(OC)ccc4c(=O)n2c13` [MW01-E6, 5,15-dimethoxy-1,11,14-triazapentacyclo[10.7.1,0^2,7.0^8,^20.0^13,^18]icosa-2(7),3,5,8(20),9,11,13(18),14,16-nonaen-19-one], the “activity in cell-based NF-κB activation assays” value (“activity” for short) in assay [1] was “inactive”. Further, the inhibition at 10 µM on CLK3 came to 9%; at CLK1 (setting [7]), 10%; at CLK2 (setting [8]), 18%; on CLK4 (setting [9]) it was 58%.

Turning to `O=c1c2cc(O)ccc2c2nccc3c4cc(O)ccc4n1c32` [MW01-E10, 5,16-dihydroxy-1,11-diazapentacyclo[10.7.1.0^2,^7.0^8,^20.0^13,^18]icosa-2(7),3,5,8(20),9,11,13(18),14,16-nonaen-19-one], the inhibition at 10 µM against CLK3 was found to be 35%; on CLK1 (setting [7]) it was 69%; on CLK2 (setting [8]) it was 70%; at CLK4 (setting [9]) it was 99%.

As for `COc1ccc2c(c1)c1ccnc3c4ccnc(OC)c4c(=O)n2c13` [MW01-E14, 5,17-dimethoxy-1,11,16-triazapentacyclo[10.7.1.0^2,^7.0^8,^20.0^13,^18]icosa-2(7),3,5,8(20),9,11,13(18),14,16-nonaen-19-one], the “activity” value in assay [1] was “inactive”. In addition, the inhibition at 10 µM against CLK3 was determined as 7%; at CLK1 (setting [7]), 6%; at CLK2 (setting [8]), 20%; on CLK4 (setting [9]), 67%.

Turning to `O=c1c2cnccc2c2nccc3c4cc(O)ccc4n1c32` [MW01-E18, 5-hydroxy-1,11,16-triazapentacyclo[10.7.1.0^2,^7.0^8,^20.0^13,^18]icosa-2(7),3,5,8(20),9,11,13(18),14,16-nonaen-19-one], the inhibition at 10 µM on CLK3 amounted to 35%; at CLK1 (setting [7]), 61%; at CLK2 (setting [8]) it was 70%; on CLK4 (setting [9]) it was 98%.

In the case of `COc1ccc2cc3c(N)nn(C(=O)c4cccc(N(C)C)c4)c3nc2c1` [MW05, (3-Amino-7-methoxypyrazolo[3,4-b]quinolin-1-yl)-[3-(dimethylamino)phenyl]methanone], the “phosphorylation of p65 at serine 536 after DNA damage” value in assay [1] was “significantly reduced”. Further, at CLK3, the CLK3 inhibition result is listed as “largely spare CLK3”. The inhibition at 10 µM came to 73% at CLK1 (setting [2]), 86% on CLK2 (setting [5]), 72% at CLK2 (setting [6]) and 94% at CLK4 (setting [2]). Further, the inhibition at 1 µM on CLK2 (setting [3]) and at CLK2 (setting [4]) was 40% in each case. The compound further had an IC50 against CLK2 of 1440 nM.

`COc1ccc2nc3c(cc2c1)c(N)nn3C(=O)c1cccc(N(C)C)c1` [MW05-E2, 1-[3-(dimethylamino)benzoyl]-6-methoxy-1H-pyrazolo[3,4-b]quinolin-3-amine]: the “activity” value in assay [1] is “inactive; also recorded: lacking activity”. Besides, the inhibition at 10 µM against CLK3 stood at 5%; on CLK1 (setting [7]), 16%; at CLK2 (setting [8]), 74%; on CLK4 (setting [9]), 75%. For the same compound, on CLK2 (in vitro kinase assay), the CLK2 inhibition entry is “inhibited CLK2”.
